This note sets out measurements from ChEMBL document CHEMBL1124928, “Inhibition of monoamine oxidases A and B by simple isoquinoline alkaloids: racemic and optically active 1,2,3,4-tetrahydro-, 3,4-dihydro-, and fully aromatic isoquinolines” (J Med Chem, 1990).

Where a name gives a salt, the structure may show the parent alone.

As usually defined, the Ki is the dissociation constant of the complex between target and ligand, obtained from inhibition or displacement. Low readings indicate a stronger hold on the target, high ones a looser hold on the target.

The target in one assay is T1, Amine oxidase [flavin-containing] A (Homo sapiens, UniProt P21397).
T1 sequence (P21397 whole entry): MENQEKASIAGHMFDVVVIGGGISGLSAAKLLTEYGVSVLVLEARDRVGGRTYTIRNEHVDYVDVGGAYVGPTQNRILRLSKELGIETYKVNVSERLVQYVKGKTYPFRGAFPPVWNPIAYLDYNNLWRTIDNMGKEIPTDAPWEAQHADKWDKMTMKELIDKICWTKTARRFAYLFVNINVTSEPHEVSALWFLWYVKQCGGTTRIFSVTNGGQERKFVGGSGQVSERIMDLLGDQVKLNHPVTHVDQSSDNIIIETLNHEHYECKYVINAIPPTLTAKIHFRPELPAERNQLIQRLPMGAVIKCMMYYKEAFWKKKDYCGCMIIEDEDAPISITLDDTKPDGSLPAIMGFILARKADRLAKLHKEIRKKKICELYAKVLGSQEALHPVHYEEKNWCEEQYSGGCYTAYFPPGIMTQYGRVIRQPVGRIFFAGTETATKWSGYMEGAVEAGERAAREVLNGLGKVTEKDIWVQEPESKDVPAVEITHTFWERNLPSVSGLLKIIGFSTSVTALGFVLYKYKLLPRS
Kind of assay: Compound was tested for inhibition against human placental Monoamine oxidase A (competitive inhibition was observed).
Take `COc1cc2c(cc1OC)CN(C)CC2`: the Ki is 27 µM.

Another assay addresses T2, Amine oxidase [flavin-containing] B (Homo sapiens, UniProt P27338).
T2 sequence (P27338 whole entry): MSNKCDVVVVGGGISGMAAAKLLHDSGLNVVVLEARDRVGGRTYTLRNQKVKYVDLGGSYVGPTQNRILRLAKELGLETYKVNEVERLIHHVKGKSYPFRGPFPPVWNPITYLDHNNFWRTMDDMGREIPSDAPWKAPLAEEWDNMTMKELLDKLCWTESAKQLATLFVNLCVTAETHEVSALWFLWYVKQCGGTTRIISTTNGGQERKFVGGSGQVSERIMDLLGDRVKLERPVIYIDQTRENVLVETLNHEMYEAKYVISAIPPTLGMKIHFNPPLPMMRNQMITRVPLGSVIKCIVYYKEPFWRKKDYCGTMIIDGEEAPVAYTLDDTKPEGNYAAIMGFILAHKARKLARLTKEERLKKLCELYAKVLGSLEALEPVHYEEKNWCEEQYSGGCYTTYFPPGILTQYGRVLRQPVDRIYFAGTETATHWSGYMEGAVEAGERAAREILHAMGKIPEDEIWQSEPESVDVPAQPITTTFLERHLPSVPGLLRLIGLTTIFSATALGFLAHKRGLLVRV
Kind of assay: Compounds were tested for inhibition against human liver Monoamine oxidase B (competitive inhibition was observed).
`C[N+]1=Cc2ccccc2CC1` came in with a Ki of 76 µM. As for `COc1ccc2c(c1)CC[N+](C)=C2`, the affinity, expressed as Ki, was 15 µM. With `CN1CCc2ccccc2C1`, the Ki was 1 µM. Same read-out and setting: the value for `COc1cc2c(cc1OC)CN(C)CC2` was 29 µM; that for `COc1cc2c(cc1O)CCN(C)[C@H]2C` (racemic) was 2300 µM; that for `COc1c2c(c(OC)c(OC)c1OC)CN(C)CC2` [WEBERINE] was 1900 µM.

In the next assay the target is T2, Amine oxidase [flavin-containing] B. The experiment in a line: Compounds were tested for inhibition against human liver Monoamine oxidase B (mixed inhibition was observed).
Molecule `COc1cc2c(cc1OC)[C@H](C)N(C)CC2` [CARNEGINE HYDROCHLORIDE] yielded a Ki of 1600 µM. On the same count and under the same terms, the figure for `COc1c2c(c(OC)c(OC)c1OC)CNCC2` [NORWEBERINE] is 580 µM.

A further assay has as its target T1, Amine oxidase [flavin-containing] A. Kind of assay: Compounds were tested for inhibition against human placental Monoamine oxidase A (mixed inhibition was observed).
Turning to `Cc1nccc2cc(O)c(O)cc12`, the Ki stood at 130 µM.

In the case of `COc1cc2c(cc1O)CCN(C)[C@H]2C` (racemic), the affinity corresponds to a Ki of 70 µM.

The molecule `COc1c2c(c(OC)c(OC)c1OC)CNCC2` [NORWEBERINE] gave a Ki of 700 µM.

The next assay has the same target.
For `C[N+]1=Cc2ccccc2CC1`, the Ki came to 130 µM. On to `COc1ccc2c(c1)CC[N+](C)=C2`, for which the Ki was found to be 4 µM. This Ki lies about 32-fold lower than the previous one. On the same count and under the same terms, the figure for `COc1cc2c(cc1OC)C(C)=NCC2` is 4 µM; for `COc1cc2c(C)nccc2cc1O` [listing 1 of 2 here] it is 150 µM. On the same count and under the same terms, the figure for `COc1cc2c(C)nccc2cc1O` [listing 2 of 2 here] is 130 µM; for `COc1cc2c(cc1O)C(C)=NCC2` it is 13 µM; for `COc1cc2c(cc1OC)CC[N+](C)=C2` it is 6 µM. Regarding `COc1cc2c(c(OC)c1OC)C(C)=NCC2`, the Ki was found to be 2 µM. The same measure, in the same setting: the figure for `COc1cc2ccncc2c(OC)c1OC` is 41 µM; for `COc1cc2c(cc1OC)[C@@H](C)NCC2` it is 6 µM; for `COc1c(OC)c(OC)c2c(C)nccc2c1OC` it is 17 µM. On the same count and under the same terms, the value for `COc1cc2c(cc1OC)[C@@H](C)N(C)CC2` was 2 µM; that for `COc1cc2c(cc1O)CCN[C@@H]2C` was 77 µM; that for `CN1CCc2cc(O)c(O)cc2C1` was 1300 µM. Still for that read-out and setting: the value for `C[C@H]1NCCc2cc(O)c(O)cc21` was 31 µM; that for `COc1cc2c(cc1O)CCN=C2C` was 80 µM; that for `COc1c2c(c(OC)c(OC)c1OC)C(C)=NCC2` was 10 µM. Molecule `COc1cc2c(cc1OC)[C@H](C)NCC2` returned a Ki of 186 µM. The molecule `CC1c2cc(O)c(O)cc2CCN1C` (racemic) had a Ki of 36 µM. The same measure, in the same setting: the figure for `COc1cc2c(c(OC)c1OC)C(C)NCC2` (racemic) is 170 µM; for `COc1cc2c(c(OC)c1OC)C(C)N(C)CC2` (racemic) it is 160 µM; for `COc1c2c(c(OC)c(OC)c1OC)C(C)NCC2` (racemic) it is 1000 µM.

`COc1cc2c(cc1O)C(C)NCC2` (racemic): the affinity corresponds to a Ki of 34 µM. The same measure, in the same setting: the value for `COc1cc2c(cc1OC)[C@H](C)N(C)CC2` [CARNEGINE HYDROCHLORIDE] was 102 µM; that for `COc1cc2c(cc1O)CCN[C@H]2C` [SALSOLINE HYDROCHLORIDE] was 160 µM; that for `C[C@@H]1NCCc2cc(O)c(O)cc21` [SALSOLINOL HYDROBROMIDE] was 284 µM. Same read-out and setting: the figure for `COc1c2c(c(OC)c(OC)c1OC)CN(C)CC2` [WEBERINE] is 260 µM.
